Where two headings read alike, the source gives them in different places. Where a SMILES comes first, the peptide text is derived from it. Bridges are numbered along the chain shown (N, C = ends). [ ]: non-standard residue; d: D form. The star is where a group is joined. Hexanoyl(4S-Me) = CC[C@H](C)CCC(=O)*; d(aIle) = CC[C@H](C)[C@@H](N)C(=O)O; d(aThr) = C[C@@H](O)[C@@H](N)C(=O)O; dTic = O=C(O)[C@H]1Cc2ccccc2CN1; Orn = NCCC[C@H](N)C(=O)O; Dhb = C/C=C(\N)C(=O)O
What was measured:
Format in all cases: cell-based, human
A-549 = assay: SRB colorimetric assay of cell growth and viability, A-549; conditions: 48 hours exposure; for GI50: read-out: GI50 A-549; for CC50: read-out: LC50 A-549
LoVo = assay: SRB colorimetric assay of cell growth and viability, LoVo; conditions: 48 hours exposure; for CC50: read-out: LC50 LOVO
IGROV-ET = assay: SRB colorimetric assay of cell growth and viability, IGROV-ET; conditions: 48 hours exposure, SRB; for CC50: read-out: LC50 IGROV-ET
SK-MEL-28 = assay: SRB colorimetric assay of cell growth and viability, SK-MEL-28; conditions: 48 hours exposure, SRB; for CC50: read-out: LC50 MEL-28
LoVo-Dox = assay: SRB colorimetric assay of cell growth and viability, LoVo-Dox; conditions: 48 hours exposure; for CC50: read-out: LC50 LOVO-DOX
Method in brief: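 After 48 hours continuous exposure to samples spanning 10 to 10^−8 μg/mL, biomass was quantified by sulforhodamine B staining of TCA-fixed cells (OD 490 nm). Cells, 5×10^3 per well in RPMI 1640 10% FBS, had attached 18 hours first; GI, TGI and LC derived from triplicate wells.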

PANC-1 = assay: SRB colorimetric assay of cell growth and viability, PANC-1; conditions: 48 hours exposure; for CC50: read-out: LC50 PANC-1
DU-145 = assay: SRB colorimetric assay of cell growth and viability, DU-145; conditions: 48 hours exposure, SRB
K-562 = assay: SRB colorimetric assay of cell growth and viability, K-562; conditions: 48 hours exposure; for CC50: read-out: LC50 K-562
LNCaP = assay: SRB colorimetric assay of cell growth and viability, LNCaP; conditions: 48 hours exposure, SRB; for GI50: read-out: GI50 LN-caP; for CC50: read-out: LC50 LN-caP
IGROV-1 = assay: SRB colorimetric assay of cell growth and viability, IGROV-1; conditions: 48 hours exposure, SRB
HT-29 = assay: SRB colorimetric assay of cell growth and viability, HT-29; conditions: 48 hours exposure; for GI50: read-out: GI50 HT-29; for CC50: read-out: LC50 HT-29
HeLa-APL = assay: SRB colorimetric assay of cell growth and viability, HeLa-APL; conditions: 48 hours exposure; for CC50: read-out: LC50 HELA-APL
HeLa = assay: SRB colorimetric assay of cell growth and viability, HeLa; conditions: 48 hours exposure; for CC50: read-out: LC50 HELA

## C/C=C1\NC(=O)[C@H](Cc2ccccc2)NC(=O)[C@@H](C(C)C)NC(=O)[C@@H]([C@@H](C)CC)NC(=O)[C@H](NC(=O)[C@H](NC(=O)[C@H](CCCN)NC(=O)[C@H]2Cc3ccccc3CN2C(=O)[C@H](NC(=O)[C@@H](NC(=O)[C@@H](NC(=O)[C@H](NC(=O)CC[C@@H](C)CC)C(C)C)[C@@H](C)O)C(C)C)C(C)C)[C@@H](C)CC)[C@@H](C)OC(=O)[C@H](C(C)C)NC1=O [Compound 61, [D-Tic^9, (4S)-MeHex^14]-KF] ({Hexanoyl(4S-Me)}-[dV]TV[dV][dTic][Orn][d(aIle)][d(aThr)][d(aIle)][dV]F[Dhb]V; ester 8-C)
A-549; A-549
  TGI A-549: 6.49E−06 Molar
  GI50: 2870 nM
  CC50: ≥ 6490 nM
LoVo; LOVO
  GI50: 1200 nM
  TGI LOVO: 2.65E−06 Molar
  CC50: 5830 nM
IGROV-ET
  GI50: 1440 nM
  TGI IGROV-ET: 3.30E−06 Molar
  CC50: ≥ 6490 nM
SK-MEL-28
  GI50: 3790 nM
  TGI MEL-28: 6.49E−06 Molar
  CC50: ≥ 6490 nM
LoVo-Dox; LOVO-DOX
  GI50: 1170 nM
  TGI LOVO-DOX: 2.71E−06 Molar
  CC50: 6280 nM
PANC-1; PANC-1
  GI50: ≥ 6490 nM
  TGI PANC-1: 6.49E−06 Molar
  CC50: ≥ 6490 nM
DU-145
  GI50: 1720 nM
  LC50 (concentration causing 50% net cell kill): ≥ 6490 nM
  TGI DU-145: 4.24E−06 Molar
K-562; K-562
  GI50: ≥ 6490 nM
  TGI K-562: 6.49E−06 Molar
  CC50: ≥ 6490 nM
LNCaP
  TGI LN-caP: 2.40E−06 Molar
  GI50: 921 nM
  CC50: 6260 nM
IGROV-1
  GI50: 1360 nM
  LC50 (concentration causing 50% net cell killing): 5980 nM
  TGI IGROV: 2.86E−06 Molar
HT-29; HT-29
  TGI HT-29: 2.25E−06 Molar
  GI50: 1180 nM
  CC50: 4260 nM
HeLa-APL; HELA-APL
  GI50: 4930 nM
  TGI HELA-APL: 6.49E−06 Molar
  CC50: ≥ 6490 nM
HeLa; HELA
  GI50: 3480 nM
  TGI HELA: 6.49E−06 Molar
  CC50: ≥ 6490 nM

## C/C=C1\NC(=O)[C@H](Cc2ccccc2)NC(=O)[C@@H](C(C)C)NC(=O)[C@@H]([C@@H](C)CC)NC(=O)[C@H](NC(=O)[C@H](NC(=O)[C@H](CCCN)NC(=O)[C@@H]2CC[C@H](c3ccccc3)N2C(=O)[C@H](NC(=O)[C@@H](NC(=O)[C@@H](NC(=O)[C@H](NC(=O)CC[C@@H](C)CC)C(C)C)[C@@H](C)O)C(C)C)C(C)C)[C@@H](C)CC)[C@@H](C)OC(=O)[C@H](C(C)C)NC1=O [Compound 62, [(5R)-Ph-Pro^9, (4S)-MeHex^14]-KF]
A-549; A-549
  TGI A-549: 6.43E−06 Molar
LoVo; LOVO
  TGI LOVO: 6.43E−06 Molar
IGROV-ET
  TGI IGROV-ET: 6.43E−06 Molar
SK-MEL-28
  TGI MEL-28: 6.43E−06 Molar
LoVo-Dox; LOVO-DOX
  TGI LOVO-DOX: 6.43E−06 Molar
PANC-1; PANC-1
  TGI PANC-1: 6.43E−06 Molar
DU-145
  TGI DU-145: 6.43E−06 Molar
K-562; K-562
  TGI K-562: 6.43E−06 Molar
LNCaP
  TGI LN-caP: 6.43E−06 Molar
IGROV-1
  TGI IGROV: 6.43E−06 Molar
HT-29; HT-29
  TGI HT-29: 6.43E−06 Molar
HeLa-APL; HELA-APL
  TGI HELA-APL: 6.43E−06 Molar
HeLa; HELA
  TGI HELA: 6.43E−06 Molar

## C/C=C1\NC(=O)[C@H](Cc2ccccc2)NC(=O)[C@@H](C(C)C)NC(=O)[C@@H]([C@@H](C)CC)NC(=O)[C@H](NC(=O)[C@H](NC(=O)[C@H](CCCC[N+](C)(C)C)NC(=O)[C@H]2CCCN2C(=O)[C@H](NC(=O)[C@@H](NC(=O)[C@@H](NC(=O)[C@H](NC(=O)CC[C@@H](C)CC)C(C)C)[C@@H](C)O)C(C)C)C(C)C)[C@@H](C)CC)[C@@H](C)OC(=O)[C@H](C(C)C)NC1=O [Compound 93, [N^ε(Me)3-Lys^8, (4S)-MeHex^14]-KF]
A-549; SRB
  TGI A-549: 6.97E−07 Molar
  GI50: 186 nM
  CC50: 2440 nM
LoVo; SRB
  GI50: 80.8 nM
  TGI LOVO: 2.08E−07 Molar
  CC50: 537 nM
IGROV-ET
  GI50: 266 nM
  TGI IGROV-ET: 7.17E−07 Molar
  CC50: 2490 nM
SK-MEL-28
  GI50: 320 nM
  TGI MEL-28: 9.51E−07 Molar
  CC50: 2600 nM
LoVo-Dox; SRB
  GI50: 78.2 nM
  TGI LOVO-DOX: 1.82E−07 Molar
  CC50: 426 nM
PANC-1; SRB
  GI50: 1110 nM
  TGI PANC-1: 2.08E−06 Molar
  CC50: 3900 nM
DU-145
  GI50: 6.21 nM
  LC50 (concentration causing 50% net cell kill): 44 nM
  TGI DU-145: 1.66E−08 Molar
K-562; SRB
  GI50: 1490 nM
  TGI K-562: 2.72E−06 Molar
  CC50: 4940 nM
LNCaP
  TGI LN-caP: 2.16E−06 Molar
  GI50: 795 nM
  CC50: 5880 nM
IGROV-1
  GI50: 214 nM
  LC50 (concentration causing 50% net cell killing): 866 nM
  TGI IGROV: 3.90E−08 Molar
HT-29; SRB
  TGI HT-29: 2.72E−07 Molar
  GI50: 168 nM
  CC50: 439 nM
HeLa-APL; SRB
  GI50: 651 nM
  TGI HELA-APL: 1.43E−06 Molar
  CC50: 3150 nM
HeLa; SRB
  GI50: 491 nM
  TGI HELA: 1.25E−06 Molar
  CC50: 3250 nM
